{"source": "ChEMBL document CHEMBL4765299", "about": "(Eur J Med Chem, 2020)", "key": {"[1]": {"assay": "(§1) against A against n against t against i against p against r against o against l against i against f against e against r against a against t against i against v against e against a against c against t against i against v against i against t against y against a against g against a against i against n against s against t against h against u against m against a against n against K against 5 against 6 against 2 against c against e against l against l against s against a against s against s against e against s against s against e against d against a against s against r against e against d against u against c against t against i against o against n against i against n against c against e against l against l against v against i against a against b against i against l against i against t against y against m against e against a against s against u against r against e against d against a against f against t against e against r against 7 against 2 against h against r against s against b against y against M against T against T against a against s against s against a against y against", "assay_type": "functional, tissue-based, Homo sapiens", "conditions": "k562"}, "HepG2": {"test_system": "HepG2", "assay": "Antiproliferative against human HepG2 cells assessed as reduction in cell viability measured after 72 hrs by MTT assay", "assay_type": "functional, cell-based", "conditions": "HepG2, 72 h"}, "[2]": {"assay": "as §1, with “n against H against C” for “n against K against 5”, “H against C against T” for “K against 5 against 6”, “C against T against -” for “5 against 6 against 2”, “T against - against 8 against c” for “6 against 2 against c”", "assay_type": "functional, tissue-based, Homo sapiens", "conditions": "hct-8"}, "[3]": {"assay": "against A against n against t against i against p against r against o against l against i against f against e against r against a against t against i against v against e against a against c against t against i against v against i against t against y against a against g against a against i against n against s against t against h against u against m against a against n against M against D against A against - against M against B against - against 2 against 3 against 1 against c against e against l against l against s against a against s against s against e against s against s against e against d against a against s against r against e against d against u against c against t against i against o against n against i against n against c against e against l against l against v against i against a against b against i against l against i against t against y against m against e against a against s against u against r against e against d against a against f against t against e against r against 7 against 2 against h against r against s against b against y against M against T against T against a against s against s against a against y against", "assay_type": "functional, tissue-based, Homo sapiens", "conditions": "mda-mb-231"}, "[4]": {"assay": "against C against y against t against o against t against o against x against i against c against i against t against y against a against g against a against i against n against s against t against h against u against m against a against n against H against F against L against - against 1 against c against e against l against l against s against a against s against s against e against s against s against e against d against a against s against r against e against d against u against c against t against i against o against n against i against n against c against e against l against l against v against i against a against b against i against l against i against t against y against m against e against a against s against u against r against e against d against a against f against t against e against r against 7 against 2 against h against r against s against b against y against M against T against T against a against s against s against a against y against", "assay_type": "ADME, tissue-based", "conditions": "Homo sapiens, HFL1"}, "Sus scrofa [5]": {"species": "Sus scrofa", "assay": "Displacement of [3H]colchicine from porcine brain tubulin at 1 uM incubated for 2 hrs by TopCount scintillation counting method relative to control", "assay_type": "tissue-based"}, "Sus scrofa [6]": {"species": "Sus scrofa", "assay": "Displacement of [3H]colchicine from porcine brain tubulin at 5 uM incubated for 2 hrs by TopCount scintillation counting method relative to control", "assay_type": "tissue-based"}, "K562 [7]": {"test_system": "K562", "assay": "Induction of mitochondrial membrane potential depolarization in human K562 cells assessed proportion of cells with intact MMP at 5 nM measured after 48 hrs by JC-1 staining based flow cytometry (reference value: 98.12%)", "assay_type": "functional"}, "K562 [8]": {"test_system": "K562", "assay": "Anti-microtubule activity in human K562 cells assessed as disruption of microtubule network in cytoplasm incubated for 24 hrs by immunofluorescence assay", "assay_type": "functional, cell-based", "conditions": "dose 5-20 nM"}, "K562 [9]": {"test_system": "K562", "assay": "Induction of apoptosis in human K562 cells assessed as early apoptotic cells at 5 nM incubated for 48 hrs by AnnexinV-FITC/propidium iodide staining based flow cytometry analysis (reference value: 1.47%)", "assay_type": "functional"}, "K562 [10]": {"test_system": "K562", "assay": "Induction of apoptosis in human K562 cells assessed as early apoptotic cells at 10 nM incubated for 48 hrs by AnnexinV-FITC/propidium iodide staining based flow cytometry analysis (reference value: 1.47%)", "assay_type": "functional"}, "K562 [11]": {"test_system": "K562", "assay": "Induction of apoptosis in human K562 cells assessed as late apoptotic cells at 20 nM incubated for 48 hrs by AnnexinV-FITC/propidium iodide staining based flow cytometry analysis (reference value: 1.78%)", "assay_type": "functional"}, "HUVEC [12]": {"test_system": "HUVEC", "assay": "Inhibition of cell migration in HUVEC assessed as wound closure at 5 nM after 24 hrs by scratch wound healing assay (reference value: 76.3%)", "assay_type": "functional, Homo sapiens", "parameters": "scale not given: the % may be the effect or the level left"}, "HUVEC [13]": {"test_system": "HUVEC", "assay": "Anti-angiogenesis activity in HUVEC assessed as inhibition of capillary-like tube formation at 10 nM incubated for 6 hrs by Matrigel-based optical microscopy", "assay_type": "functional, cell-based", "conditions": "Homo sapiens"}, "[14]": {"assay": "Toxicity in ICR mouse allografted with mouse H22 cells assessed as body weight loss at 30 mg/kg, iv administered daily for 21 days", "assay_type": "organism-based", "conditions": "in vivo, 504 h, dose 30 mg/kg/day, time 21 day"}, "K562 [15]": {"test_system": "K562", "assay": "Induction of cell cycle arrest in human K562 cells assessed as accumulation at S phase at 5 nM incubated for 48 hrs by propidium iodide/RNase staining based flow cytometry (reference value: 53.48%)", "assay_type": "functional"}, "K562 [16]": {"test_system": "K562", "assay": "Induction of cell cycle arrest in human K562 cells assessed as accumulation at G2/M phase at 5 nM incubated for 48 hrs by propidium iodide/RNase staining based flow cytometry (reference value: 7.7%)", "assay_type": "functional"}, "K562 [17]": {"test_system": "K562", "assay": "Induction of cell cycle arrest in human K562 cells assessed as accumulation at G1 phase at 10 nM incubated for 48 hrs by propidium iodide/RNase staining based flow cytometry (reference value: 38.83%)", "assay_type": "functional"}, "K562 [18]": {"test_system": "K562", "assay": "Induction of cell cycle arrest in human K562 cells assessed as accumulation at S phase at 10 nM incubated for 48 hrs by propidium iodide/RNase staining based flow cytometry (reference value: 53.48%)", "assay_type": "functional"}, "K562 [19]": {"test_system": "K562", "assay": "Induction of cell cycle arrest in human K562 cells assessed as accumulation at G1 phase at 20 nM incubated for 48 hrs by propidium iodide/RNase staining based flow cytometry (reference value: 38.83%)", "assay_type": "functional"}, "K562 [20]": {"test_system": "K562", "assay": "Induction of cell cycle arrest in human K562 cells assessed as accumulation at S phase at 20 nM incubated for 48 hrs by propidium iodide/RNase staining based flow cytometry (reference value: 53.48%)", "assay_type": "functional"}, "K562 [21]": {"test_system": "K562", "assay": "Induction of cell cycle arrest in human K562 cells assessed as accumulation at G2/M phase at 20 nM incubated for 48 hrs by propidium iodide/RNase staining based flow cytometry (reference value: 7.7%)", "assay_type": "functional"}, "K562 [22]": {"test_system": "K562", "assay": "Induction of cell cycle arrest in human K562 cells assessed as increase in accumulation at G2/M phase incubated for 48 hrs by propidium iodide/RNase staining based flow cytometry", "assay_type": "functional", "conditions": "dose 5-20 nM"}, "K562 [23]": {"test_system": "K562", "assay": "Induction of mitochondrial membrane potential depolarization in human K562 cells assessed proportion of cells with intact MMP at 10 nM measured after 48 hrs by JC-1 staining based flow cytometry (reference value: 98.12%)", "assay_type": "functional"}, "K562 [24]": {"test_system": "K562", "assay": "Induction of mitochondrial membrane potential depolarization in human K562 cells assessed proportion of cells with intact MMP at 20 nM measured after 48 hrs by JC-1 staining based flow cytometry (reference value: 98.12%)", "assay_type": "functional"}, "K562 [25]": {"test_system": "K562", "assay": "Induction of mitochondrial membrane potential depolarization in human K562 cells measured after 48 hrs by JC-1 staining based flow cytometry", "assay_type": "functional, cell-based", "conditions": "dose 5-20 nM"}, "[26]": {"assay": "Toxicity in ICR mouse allografted with mouse H22 cells assessed as liver morphological changes at 30 mg/kg, iv administered daily for 21 days by hematoxylin and eosin staining based microscopic analysis", "assay_type": "organism-based", "conditions": "in vivo, 504 h, dose 30 mg/kg/day, time 21 day"}, "[27]": {"assay": "Toxicity in ICR mouse allografted with mouse H22 cells assessed as kidney morphological changes at 30 mg/kg, iv administered daily for 21 days by hematoxylin and eosin staining based microscopic analysis", "assay_type": "organism-based", "conditions": "in vivo, 504 h, dose 30 mg/kg/day, time 21 day"}}, "note": "pIC50: −log10 of the molar value. Active and inactive are the calls of the source. The calls are words filed in the database; no cut-off is given here."}
{"compound": "C=C(c1cc(Cl)nc(NC)c1)c1ccc(OC)c(O)c1", "values": [{"measurement": "pIC50", "setting": "[1]", "value": 8.00}, {"measurement": "pIC50", "setting": "HepG2", "value": 7.72}, {"measurement": "pIC50", "setting": "[2]", "value": 7.68}, {"measurement": "pIC50", "setting": "[3]", "value": 7.70}, {"measurement": "pIC50", "setting": "[4]", "value": 6.93}, {"measurement": "inhibition", "setting": "Sus scrofa [5]", "value": 66.5, "unit": "%"}, {"measurement": "inhibition", "setting": "Sus scrofa [6]", "value": 79.3, "unit": "%"}, {"measurement": "Activity", "setting": "K562 [7]", "value": 86.4, "unit": "%"}, {"measurement": "Activity", "setting": "K562 [8]", "value": "Dose-dependent effect"}, {"measurement": "Activity", "setting": "K562 [9]", "value": 6.6, "unit": "%"}, {"measurement": "Activity", "setting": "K562 [10]", "value": 37.25, "unit": "%"}, {"measurement": "Activity", "setting": "K562 [11]", "value": 18.43, "unit": "%"}, {"measurement": "Activity", "setting": "HUVEC [12]", "value": 67.6, "unit": "%"}, {"measurement": "Activity", "setting": "HUVEC [13]", "value": "Active"}, {"measurement": "Activity", "setting": "[14]", "value": "Non-Toxic"}, {"measurement": "Activity", "setting": "K562 [15]", "value": 50.66, "unit": "%"}, {"measurement": "Activity", "setting": "K562 [16]", "value": 9.4, "unit": "%"}, {"measurement": "Activity", "setting": "K562 [17]", "value": 38.45, "unit": "%"}, {"measurement": "Activity", "setting": "K562 [18]", "value": 50.01, "unit": "%"}, {"measurement": "Activity", "setting": "K562 [19]", "value": 36.65, "unit": "%"}, {"measurement": "Activity", "setting": "K562 [20]", "value": 48.07, "unit": "%"}, {"measurement": "Activity", "setting": "K562 [21]", "value": 15.28, "unit": "%"}, {"measurement": "Activity", "setting": "K562 [22]", "value": "Dose-dependent effect"}, {"measurement": "Activity", "setting": "K562 [23]", "value": 79.83, "unit": "%"}, {"measurement": "Activity", "setting": "K562 [24]", "value": 61.55, "unit": "%"}, {"measurement": "Activity", "setting": "K562 [25]", "value": "Dose-dependent effect"}, {"measurement": "Activity", "setting": "[26]", "value": "Non-Toxic"}, {"measurement": "Activity", "setting": "[27]", "value": "Non-Toxic"}]}
